Where a name gives a salt, the structure may show the parent alone.
How the values were obtained:
NLRP3 [1] = target: T1, NLRP3 (Homo sapiens, UniProt Q96P20); test: Human whole blood IL-1β release assay (LPS, nigericin, AlphaLisa); type: cell-based; parameters: Plate out 80 μl of whole blood containing 1 μg/ml of LPS; from tissue; host or cells: human whole blood from healthy donors, LPS-primed, nigericin-stimulated; settings: 1 μg/ml LPS, 3 h compound, 10 μM nigericin 1 hr, IL-1β in supernatant, read-out: Human whole blood IB-1β Assay IC50
T1 sequence (Q96P20 whole entry): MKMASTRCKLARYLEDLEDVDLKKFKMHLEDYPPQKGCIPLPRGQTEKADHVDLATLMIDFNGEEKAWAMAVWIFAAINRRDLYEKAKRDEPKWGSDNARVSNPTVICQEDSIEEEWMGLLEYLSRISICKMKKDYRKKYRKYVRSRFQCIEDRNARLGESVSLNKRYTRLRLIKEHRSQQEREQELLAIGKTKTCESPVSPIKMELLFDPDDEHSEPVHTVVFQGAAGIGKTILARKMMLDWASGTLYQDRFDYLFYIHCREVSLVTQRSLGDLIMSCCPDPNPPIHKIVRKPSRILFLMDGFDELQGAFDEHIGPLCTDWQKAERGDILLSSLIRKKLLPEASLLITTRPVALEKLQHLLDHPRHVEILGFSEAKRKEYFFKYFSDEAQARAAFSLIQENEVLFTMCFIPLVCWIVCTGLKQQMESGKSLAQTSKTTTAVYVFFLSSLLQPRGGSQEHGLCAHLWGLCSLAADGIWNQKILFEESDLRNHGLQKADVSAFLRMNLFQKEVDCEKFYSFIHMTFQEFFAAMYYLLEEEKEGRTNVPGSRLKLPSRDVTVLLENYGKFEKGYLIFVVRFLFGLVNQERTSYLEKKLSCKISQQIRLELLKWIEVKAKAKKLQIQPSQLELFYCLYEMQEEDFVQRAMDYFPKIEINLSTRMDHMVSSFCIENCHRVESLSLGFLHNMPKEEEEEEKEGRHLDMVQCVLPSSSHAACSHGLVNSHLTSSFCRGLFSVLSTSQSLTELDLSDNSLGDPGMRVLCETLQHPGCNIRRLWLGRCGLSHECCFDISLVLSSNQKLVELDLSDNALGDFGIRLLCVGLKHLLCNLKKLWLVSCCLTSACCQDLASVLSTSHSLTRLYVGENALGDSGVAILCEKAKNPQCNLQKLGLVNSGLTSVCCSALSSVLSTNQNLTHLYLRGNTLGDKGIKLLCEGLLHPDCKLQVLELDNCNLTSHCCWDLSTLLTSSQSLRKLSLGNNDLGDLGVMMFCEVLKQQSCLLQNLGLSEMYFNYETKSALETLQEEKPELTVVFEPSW
Experimental: For systemic delivery, the ability to inhibit NLRP3 when the compounds are present within the bloodstream is of great importance. For this reason, the NLRP3 inhibitory activity of a number of compounds in human whole blood was investigated in accordance with the following protocol.
Human whole blood in Li-heparin tubes was obtained from healthy donors from a volunteer donor panel. • 1. Plate out 80 μl of whole blood containing 1 μg/ml of LPS in 96-well, clear bottom cell culture plate (Corning #3585) • 2. Add 10 μl compound (8 points half-log dilution with 10 μM top dose) or vehicle (DMSO 0.10% FAC) to the appropriate wells • 3. Incubate for 3 hours at 37° C., 5% CO2 • 4. Add 10 μl nigericin (Sigma #N7143) (10 μM FAC) to all wells • 5. Incubate for 1 hr at 37° C., 5% CO2 • 6. At the end of the incubation period, spin plates at 300×g for 5 mins to pellet cells and remove 20 μl of supernatant and add to 96-well v-bottom plates for IL-1β analysis (note: these plates containing the supernatants can be stored at −80° C. to be analysed at a later date) • 7. IL-1β was measured according to the manufacturer protocol (Perkin Elmer-AlphaLisa IL-1 Kit AL220F-5000) • 8. IC50 data is fitted to a non-linear regression equation (log inhibitor vs response-variable slope 4-parameters)

NLRP3 [2] = target: T1, NLRP3; test: THP-1 cells pyroptosis assay (LPS priming, nigericin, resazurin readout); type: cell-based; parameters: Seed THP-1 cells (25,000 cells/well) containing 1.0 μg/ml LPS; host or cells: THP-1 cells, LPS-primed, nigericin-stimulated; settings: 1 μg/ml LPS, 3 h compound, 5 μM nigericin 1 hr
Experimental: THP-1 cells (ATCC #TIB-202) were grown in RPMI containing L-glutamine (Gibco #11835) supplemented with 1 mM sodium pyruvate (Sigma #S8636) and penicillin (100 units/ml)/streptomycin (0.1 mg/ml) (Sigma #P4333) in 10% Fetal Bovine Serum (FBS) (Sigma #F0804). The cells were routinely passaged and grown to confluency (˜10^6 cells/ml). On the day of the experiment, THP-1 cells were harvested and resuspended into RPMI medium (without FBS). The cells were then counted and viability (>90%) checked by Trypan blue (Sigma #T8154). Appropriate dilutions were made to give a concentration of 625,000 cells/ml. To this diluted cell solution was added LPS (Sigma #L4524) to give a 1 μg/ml Final Assay Concentration (FAC). 40 μl of the final preparation was aliquoted into each well of a 96-well plate. The plate thus prepared was used for compound screening.
The following method step-by-step assay was followed for compound screening. • 1. Seed THP-1 cells (25,000 cells/well) containing 1.0 μg/ml LPS in 40 μl of RPMI medium (without FBS) in 96-well, black walled, clear bottom cell culture plates coated with poly-D-lysine (VWR #734-0317) • 2. Add 5 μl compound (8 points half-log dilution, with 10 μM top dose) or vehicle (DMSO 0.1% FAC) to the appropriate wells • 3. Incubate for 3 hours at 37° C., 5% CO2 • 4. Add 5 μl nigericin (Sigma #N7143) (FAC 5 μM) to all wells • 5. Incubate for 1 hr at 37° C., 5% CO2 • 6. At the end of the incubation period, spin plates at 300×g for 3 mins and remove supernatant • 7. Then add 50 μl of resazurin (Sigma #R7017) (FAC 100 μM resazurin in RPMI medium without FBS) and incubate plates for a further 1-2 hours at 37° C. and 5% CO2 • 8. Plates were read in an Envision reader at Ex 560 nm and Em 590 nm • 9. IC50 data is fitted to a non-linear regression equation (log inhibitor vs response-variable slope 4-parameters)

Row | IC50 (NLRP3 [1]) | IC50 (NLRP3 [2]) | SMILES
1 | 2.6 nM | 18 nM | CCN1CCC[C@@H](Nc2nnc(-c3ccc(C(F)(F)F)cc3O)c3onc(C)c23)C1 [Example 13, 2-[4-[[(3R)-1-Ethyl-3-piperidyl]amino]-3-methyl-isoxazolo[4,5-d]pyridazin-7-yl]-5-(trifluoromethyl)phenol]
2 | 0.014 nM | 2.2 nM | CCN1CCC[C@@H](Nc2nnc(-c3ccc(Cl)cc3O)c3c2cnn3C)C1 [Example 12, 5-Chloro-2-[1-methyl-4-[[(3R)-1-ethyl-3-piperidyl]amino]pyrazolo[3,4-d]pyridazin-7-yl]phenol; 2,2,2-trifluoroacetic acid]
3 | 0.111 nM | 7.8 nM | CCN1CCC[C@@H](Nc2nnc(-c3c(C)cc(C(F)(F)F)cc3O)c3[nH]ncc23)C1 [Example 14, 2-[4-[[(3R)-1-ethyl-3-piperidyl]amino]-1H-pyrazolo[3,4-d]pyridazin-7-yl]-3-methyl-5-(trifluoromethyl)phenol; 2,2,2-trifluoroacetic acid]
4 | – | 76 nM | Cn1ncc2c(N[C@@H]3CCCC[C@H]3O)nnc(-c3ccc(C(F)(F)F)cc3O)c21 [Example 11, 2-[4-[[(1R,2R)-2-Hydroxycyclohexyl]amino]-1-methyl-pyrazolo[3,4-d]pyridazin-7-yl]-5-(trifluoromethyl)phenol; 2,2,2-trifluoroacetic acid]
5 | – | 362 nM | Cn1ncc2c(N[C@H]3C[C@@](C)(O)C3)nnc(-c3ccc(C(F)(F)F)cc3O)c21 [Example 16, 2-[4-[(3-Hydroxy-3-methyl-cyclobutyl)amino]-1-methyl-pyrazolo[3,4-d]pyridazin-7-yl]-5-(trifluoromethyl)phenol]
6 | 0.024 nM | 2.3 nM | CCN1CCC[C@@H](Nc2nnc(-c3ccc(OC(F)(F)F)cc3O)c3c2cnn3C)C1 [Example 10, 2-[4-[[(3R)-1-Ethyl-3-piperidyl]amino]-1-methyl-pyrazolo[3,4-d]pyridazin-7-yl]-5-(trifluoromethoxy)phenol; 2,2,2-trifluoroacetic acid]
7 | 0.3 nM | 46.6 nM | CCN1C[C@@H](O)C[C@@H](Nc2nnc(-c3ccc4c(c3O)CCO4)c3c2cnn3C)C1 [Example 19, (3S,5R)-1-Ethyl-5-[[7-(4-hydroxy-2,3-dihydrobenzofuran-5-yl)-1-methyl-pyrazolo[3,4-d]pyridazin-4-yl]amino]piperidin-3-ol]
8 | 0.232 nM | 8.6 nM | CCN1CCC[C@@H](Nc2nnc(-c3c(O)cc(C(F)(F)F)cc3F)c3c2cnn3C)C1 [Example 15, 2-[4-[[(3R)-1-Ethyl-3-piperidyl]amino]-1-methyl-pyrazolo[3,4-d]pyridazin-7-yl]-3-fluoro-5-(trifluoromethyl)phenol]
9 | 0.033 nM | 2.2 nM | CCN1CCC[C@@H](Nc2nnc(-c3ccc4c(c3O)CC4)c3c2cnn3C)C1 [Example 18, 3-[4-[[(3R)-1-Ethyl-3-piperidyl]amino]-1-methyl-pyrazolo[3,4-d]pyridazin-7-yl]bicyclo[4.2.0]octa-1(6),2,4-trien-2-ol]
10 | 0.015 nM | 3.6 nM | CCN1CCC[C@@H](Nc2nnc(-c3ccc4c(c3O)CCO4)c3c2cnn3C)C1 [Example 17, 5-[4-[[(3R)-1-Ethyl-3-piperidyl]amino]-1-methyl-pyrazolo[3,4-d]pyridazin-7-yl]-2,3-dihydrobenzofuran-4-ol]

Further lines, the molecule ahead of its results:

Row | SMILES | IC50 (NLRP3 [1]) | IC50 (NLRP3 [2])
11 | CCN1CCCC(Nc2nnc(-c3ccc(C(F)(F)F)cc3O)c3ccsc23)C1 (racemic) [Example 1, (rac)-2-[7-[(1-Ethyl-3-piperidyl)amino]thieno[2,3-d]pyridazin-4-yl]-5(trifluoromethyl)phenol; formic acid] | 0.088 nM | 1.6 nM
12 | CCN1CCCC(Nc2nnc(-c3ccc(C(F)(F)F)cc3O)c3sccc23)C1 (racemic) [Example 2, (rac)-2-[4-[(1-Ethyl-3-piperidyl)amino]thieno[2,3-d]pyridazin-7-yl]-5 (trifluoromethyl)phenol; formic acid] | 0.349 nM | 3.5 nM
13 | CCN1CCC[C@@H](Nc2nnc(-c3ccc(C(F)(F)F)cc3O)c3c2cnn3C)C1 [Example 6, 2-[4-[[(3R)-1-Ethyl-3-piperidyl]amino]-1-methyl-pyrazolo[3,4-d]pyridazin-7-yl]-5-(trifluoromethyl)phenol; 2,2,2-trifluoroacetic acid] | 0.028 nM | 3.5 nM
14 | CCN1CCC[C@@H](Nc2nnc(-c3ccc(C(F)(F)F)cc3O)c3c2ccn3C)C1 [Example 5-HCl, 2-[4-[[(3R)-1-Ethyl-3-piperidyl]amino]-1-methyl-pyrrolo[2,3-d]pyridazin-7-yl]-5-(trifluoromethyl)phenol; hydrochloride] | – | 11.6 nM
15 | CCN1CCC[C@@H](Nc2nnc(-c3ccc(C(F)(F)F)cc3O)c3cnn(C)c23)C1 [Example 9, 2-[7-[[(3R)-1-Ethyl-3-piperidyl]amino]-1-methyl-pyrazolo[3,4-d]pyridazin-4-yl]-5-(trifluoromethyl)phenol] | 0.217 nM | 2.7 nM
16 | CCN1CCC[C@@H](Nc2nnc(-c3ccc(C(F)(F)F)cc3O)c3c2ccn3C)C1 [Example 5-TFA, 2-[4-[[(3R)-1-ethyl-3-piperidyl]amino]-1-methyl-pyrrolo[2,3-d]pyridazin-7-yl]-5-(trifluoromethyl)phenol; 2,2,2-trifluoroacetic acid] | 0.028 nM | 12.4 nM
17 | CCN1CCCC(Nc2nnc(-c3ccc(C(F)(F)F)cc3)c3ccsc23)C1 (racemic) [Example 3, (rac)-N-(1-ethyl-3-piperidyl)-4-[4-(trifluoromethyl)phenyl]thieno[2,3-d]pyridazin-7-amine] | 0.091 nM | 57.2 nM
18 | CCN1CCC[C@@H](Nc2nnc(-c3ccc(C(F)(F)F)cc3O)c3occc23)C1 [Example 7, 2-[4-[[(3R)-1-ethyl-3-piperidyl]amino]furo[2,3-d]pyridazin-7-yl]-5-(trifluoromethyl)phenol] | 0.592 nM | 9.1 nM
19 | CCN1CCCC(Nc2nnc(-c3ccc(C(F)(F)F)cc3)c3sccc23)C1 (racemic) [Example 4, (rac)-N-(1-ethyl-3-piperidyl)-7-[4-(trifluoromethyl)phenyl]thieno[2,3-d]pyridazin-4-amine] | 0.328 nM | 52.4 nM

Source: patent US20240409553A1, “HETEROCYCLIC NLRP3 INHIBITORS” (Hoffmann-La Roche Inc., priority 2021, published 2024)
